Converted amounts (≈) assume the structure as drawn.
Tests used:
[1] = test system: Staphylococcus aureus; test: Antibacterial activity against carbapenem-resistant Staphylococcus aureus M126 HR; type: functional
[2] = test system: Staphylococcus aureus; test: Antibacterial activity against Staphylococcus aureus 209P JC1; type: functional
[3] = test system: Mus musculus; test: Acute toxicity in iv dosed ICR mouse assessed as mortality after 24 hrs; type: organism-based; details: in vivo
[4] = test system: Staphylococcus aureus; test: Antibacterial activity against methicillin-resistant Staphylococcus aureus M126; type: functional
[5] = Total clearance in mouse at 20 mg/kg, iv administered with 10 mg/kg cilastatin; type: ADME, organism-based; details: in vivo
[6] = test system: Serum; test: Protein binding in human serum by equilibrium dialysis method; type: ADME, cell-free
[7] = AUC (0-infinity) in mouse at 20 mg/kg, iv administered with 10 mg/kg cilastatin; type: ADME, organism-based; parameters: dose 20 mg/kg, route intravenous, time infinity; details: plasma
[8] = test system: Moraxella catarrhalis; test: Antibacterial activity against Moraxella catarrhalis W-0500; type: functional
[9] = Volume of distribution at steady state in mouse at 20 mg/kg, iv administered with 10 mg/kg cilastatin; type: ADME, organism-based; details: in vivo, read-out: Vss
[10] = test system: Haemophilus influenzae; test: Antibacterial activity against beta lactamase positive amoxicillin/clavulanic acid-resistant Haemophilus influenzae PRC44; type: functional
[11] = test system: Staphylococcus aureus; test: Protective effect against methicillin-resistant Staphylococcus aureus MF126 systemic infection in ICR mouse dosed sc twice a day; type: functional
[12] = Urinary excretion of compound in mouse at 20 mg/kg, iv administered with 10 mg/kg cilastatin; type: ADME, organism-based; details: urine, read-out: Activity
[13] = test system: Pseudomonas aeruginosa; test: Antibacterial activity against Pseudomonas aeruginosa PAO1; type: functional
[14] = test system: Staphylococcus aureus; test: Antibacterial activity against methicillin-resistant Staphylococcus aureus MF126; type: functional
[15] = Half life in mouse at 20 mg/kg, iv administered with 10 mg/kg cilastatin; type: ADME, organism-based; details: in vivo
[16] = test system: Staphylococcus aureus; test: Antibacterial activity against methicillin-resistant Staphylococcus aureus; type: functional
[17] = test system: Escherichia coli; test: Antibacterial activity against Escherichia coli NIHJ JC2; type: functional
[18] = test system: Staphylococcus aureus; test: Antibacterial activity against penicillin-resistant Staphylococcus aureus PRC9; type: functional
[19] = test system: Serum; test: Protein binding in mouse serum by equilibrium dialysis method; type: ADME, cell-free
[20] = test system: Klebsiella pneumoniae; test: Antibacterial activity against Klebsiella pneumoniae PCI602; type: functional

Compound | MIC [1] [µg/mL] | MIC [2] [µg/mL] | MLD [3] [mg/kg] | MIC [4] [µg/mL] | further results
CSc1c2sc(C3=C(C(=O)[O-])N4C(=O)[C@H]([C@@H](C)O)[C@H]4[C@H]3C)cn2c[n+]1CCN | 3.13 (≈ 7.41 µM) | < 0.006 | 500 | 0.78 (≈ 1.85 µM) | 
CSc1c2sc(C3=C(C(=O)[O-])N4C(=O)[C@H]([C@@H](C)O)[C@H]4[C@H]3C)cn2c[n+]1[C@@H]1CN[C@H](CO)C1 | 3.13 (≈ 6.54 µM) | < 0.006 |  | 0.78 (≈ 1.63 µM) | 
CSc1c2sc(C3=C(C(=O)[O-])N4C(=O)[C@H]([C@@H](C)O)[C@H]4[C@H]3C)cn2c[n+]1CCCCN | 1.56 (≈ 3.46 µM) | < 0.006 |  | 0.78 (≈ 1.73 µM) | 
CSc1c2sc(C3=C(C(=O)[O-])N4C(=O)[C@H]([C@@H](C)O)[C@H]4[C@H]3C)cn2c[n+]1CCCN | 1.56 (≈ 3.57 µM) | < 0.006 | 250 | 0.78 (≈ 1.79 µM) | 
CSc1c2sc(C3=C(C(=O)[O-])N4C(=O)[C@H]([C@@H](C)O)[C@H]4[C@H]3C)cn2c[n+]1C1CCNCC1 | 3.13 (≈ 6.77 µM) | 0.013 (≈ 0.0281 µM) |  | 1.56 (≈ 3.37 µM) | 
CSc1c2sc(C3=C(C(=O)[O-])N4C(=O)[C@H]([C@@H](C)O)[C@H]4[C@H]3C)cn2c[n+]1C[C@H](O)CN | 1.56 (≈ 3.45 µM) | < 0.006 | > 500 | 0.78 (≈ 1.72 µM) | clearance [5]: 26.8 mL/min/kg; Activity [6]: 12.2%; AUC(0-inf) [7]: 12600 ng·h/mL; MIC [8]: 0.05 µg/mL (≈ 0.11 µM); Vd [9]: 0.34 L/kg; MIC [10]: 0.78 µg/mL; ED50 [11]: 0.039 mg; dose excreted [12]: 41.9%; MIC [13]: 6.25 µg/mL (≈ 13.8 µM); MIC [14]: 1.56 µg/mL (≈ 3.45 µM); half-life [15]: 13.4 min; MIC50 [16]: 0.78 µg/mL (≈ 1.72 µM); MIC90 [16]: 1.56 µg/mL (≈ 3.45 µM); MIC [17]: 0.05 µg/mL (≈ 0.11 µM); MIC [18]: 0.05 µg/mL (≈ 0.11 µM); Activity [19]: 16%; MIC [20]: 0.1 µg/mL (≈ 0.221 µM)
CO[C@H](CN)C[n+]1cn2cc(C3=C(C(=O)[O-])N4C(=O)[C@H]([C@@H](C)O)[C@H]4[C@H]3C)sc2c1SC | 3.13 (≈ 6.71 µM) | < 0.006 | > 500 | 0.78 (≈ 1.67 µM) | 
CSc1c2sc(C3=C(C(=O)[O-])N4C(=O)[C@H]([C@@H](C)O)[C@H]4[C@H]3C)cn2c[n+]1[C@H]1CCNC1 | 1.56 (≈ 3.48 µM) | < 0.006 | 500 | 0.78 (≈ 1.74 µM) | 
CSc1c2sc(C3=C(C(=O)[O-])N4C(=O)[C@H]([C@@H](C)O)[C@H]4[C@H]3C)cn2c[n+]1CCCNC(C)=N | 3.13 (≈ 6.55 µM) | < 0.006 |  | 0.78 (≈ 1.63 µM) | 
CSc1c2sc(C3=C(C(=O)[O-])N4C(=O)[C@H]([C@@H](C)O)[C@H]4[C@H]3C)cn2c[n+]1C[C@@H]1CCCN1 | 3.13 (≈ 6.77 µM) | < 0.006 |  | 0.78 (≈ 1.69 µM) | 
CSc1c2sc(C3=C(C(=O)[O-])N4C(=O)[C@H]([C@@H](C)O)[C@H]4[C@H]3C)cn2c[n+]1[C@@H]1CN[C@H](C(=O)O)C1 | 6.25 (≈ 12.7 µM) | 0.025 (≈ 0.0508 µM) |  | 3.13 (≈ 6.35 µM) | 
CSc1c2sc(C3=C(C(=O)[O-])N4C(=O)[C@H]([C@@H](C)O)[C@H]4[C@H]3C)cn2c[n+]1CCCCCCN | 1.56 (≈ 3.26 µM) | < 0.006 | 250 | 0.78 (≈ 1.63 µM) | 
CSc1c2sc(C3=C(C(=O)[O-])N4C(=O)[C@H]([C@@H](C)O)[C@H]4[C@H]3C)cn2c[n+]1CCSCCN | 1.56 (≈ 3.23 µM) | < 0.006 |  | 0.39 (≈ 0.808 µM) | 
COC(=O)[C@@H]1C[C@H]([n+]2cn3cc(C4=C(C(=O)[O-])N5C(=O)[C@H]([C@@H](C)O)[C@H]5[C@H]4C)sc3c2SC)CN1 | 6.25 (≈ 12.3 µM) | 0.013 (≈ 0.0257 µM) |  | 1.56 (≈ 3.08 µM) | 
C[C@@H](O)[C@H]1C(=O)N2C(C(=O)O)=C(SCCNC=N)C[C@H]12 [IMIPENEM ANHYDROUS] | 100 (≈ 334 µM) | 0.013 (≈ 0.0434 µM) |  | 25 (≈ 83.5 µM) | MIC [8]: 0.05 µg/mL (≈ 0.167 µM); MIC [10]: 3.13 µg/mL; MIC [13]: 1.56 µg/mL (≈ 5.21 µM); MIC [17]: 0.1 µg/mL (≈ 0.334 µM); MIC [18]: 0.39 µg/mL (≈ 1.3 µM); MIC [20]: 0.39 µg/mL (≈ 1.3 µM)
CN[C@H](CC(C)C)C(=O)N[C@H]1C(=O)N[C@@H](CC(N)=O)C(=O)N[C@H]2C(=O)N[C@H]3C(=O)N[C@H](C(=O)N[C@H](C(=O)O)c4cc(O)cc(O)c4-c4cc3ccc4O)[C@H](O)c3ccc(c(Cl)c3)Oc3cc2cc(c3O[C@@H]2O[C@H](CO)[C@@H](O)[C@H](O)[C@H]2O[C@H]2C[C@](C)(N)[C@H](O)[C@H](C)O2)Oc2ccc(cc2Cl)[C@H]1O [VANCOMYCIN] | 1.56 (≈ 1.08 µM) | 0.78 (≈ 0.538 µM) |  | 1.56 (≈ 1.08 µM) | ED50 [11]: 0.18 mg; MIC [14]: 0.78 µg/mL (≈ 0.538 µM); MIC50 [16]: 1.56 µg/mL (≈ 1.08 µM); MIC90 [16]: 1.56 µg/mL (≈ 1.08 µM)
CSc1c2sc(C3=C(C(=O)[O-])N4C(=O)[C@H]([C@@H](C)O)[C@H]4[C@H]3C)cn2c[n+]1[C@H]1CCN(C(C)=N)C1 | 3.13 (≈ 6.39 µM) | < 0.006 |  | 1.56 (≈ 3.19 µM) | 
CSc1c2sc(C3=C(C(=O)[O-])N4C(=O)[C@H]([C@@H](C)O)[C@H]4[C@H]3C)cn2c[n+]1Cc1cccc(CSC(=N)N)c1 | 0.78 (≈ 1.4 µM) | < 0.006 | 250 | 0.39 (≈ 0.699 µM) | 
CSc1c2sc(C3=C(C(=O)[O-])N4C(=O)[C@H]([C@@H](C)O)[C@H]4[C@H]3C)cn2c[n+]1C[C@@H](CN)OCF | 3.13 (≈ 6.46 µM) | < 0.006 | 500 | 0.78 (≈ 1.61 µM) | 
CSc1c2sc(C3=C(C(=O)[O-])N4C(=O)[C@H]([C@@H](C)O)[C@H]4[C@H]3C)cn2c[n+]1[C@@H]1CN[C@H](C(=O)N(C)C)C1 | 6.25 (≈ 12 µM) | 0.025 (≈ 0.0481 µM) |  | 3.13 (≈ 6.02 µM) | 
CSc1c2sc(C3=C(C(=O)[O-])N4C(=O)[C@H]([C@@H](C)O)[C@H]4[C@H]3C)cn2c[n+]1CCCSC(=N)N | 1.56 (≈ 3.15 µM) | < 0.006 | 250 | 0.39 (≈ 0.787 µM) | 
CSc1c2sc(C3=C(C(=O)[O-])N4C(=O)[C@H]([C@@H](C)O)[C@H]4[C@H]3C)cn2c[n+]1CCS(=O)(=O)CCN | 3.13 (≈ 6.08 µM) | < 0.006 | > 500 | 0.78 (≈ 1.52 µM) | 
CSc1c2sc(C3=C(C(=O)[O-])N4C(=O)[C@H]([C@@H](C)O)[C@H]4[C@H]3C)cn2c[n+]1C[C@H](C)CN | 1.56 (≈ 3.46 µM) | < 0.006 | 500 | 0.78 (≈ 1.73 µM) | 
CSc1c2sc(C3=C(C(=O)[O-])N4C(=O)[C@H]([C@@H](C)O)[C@H]4[C@H]3C)cn2c[n+]1CCCNC=N | 3.13 (≈ 6.75 µM) | < 0.006 |  | 0.78 (≈ 1.68 µM) | 
CSc1c2sc(C3=C(C(=O)[O-])N4C(=O)[C@H]([C@@H](C)O)[C@H]4[C@H]3C)cn2c[n+]1CC(N)=O | 3.13 (≈ 7.17 µM) | < 0.006 |  | 1.56 (≈ 3.57 µM) | 

From ChEMBL document CHEMBL1143762, “CP5484, a novel quaternary carbapenem with potent anti-MRSA activity and reduced toxicity” (Bioorg Med Chem, 2007)
